Where two headings read alike, the source gives them in different places.
Assays:
HEK293F cells [1] = assay type: cell-based
Experimental: (§1) To determine cell viability and viable cell density (VCD) 1 mL cultivation medium (cell suspension) was transferred into a Cedex low fouling sample cup. The cup was placed into a Vicell instrument (Beckman Coulter). The instrument mixes cells with trypan blue to stain dead cells. After analysis of 50 images VCD was calculated and viability was determined by calculation of the percentage of viable cell number in relation to the total cell number.

HDAC [2] = assay: in situ HDAC activity fluorimetric assay in HEK293F cells; assay type: cell-based, human; details: for HDACi: N=3, FIG. 3A; for HDAC inhibition: yes/no, summary table
Experimental: HDAC activity was determined by the in situ HDAC activity fluorimetric assay kit (Biovision) according to the manufacturer's instructions. HEK293F cells were suspended in F17 medium (Life Technologies) to a cell density of 5*10^5 cells/mL. One hundred micro liter culture was pipetted per well into a black ELISA plate. The plate was centrifuged at 1000 g for 5 min. The supernatant was discarded and the cells were resuspended in a reaction mix containing F17 medium, 1% HDAC substrate and the molecule tested towards HDAC inhibitory activity. 10 μM Trichostatin A was used as a positive control and the basal HDAC activity was determined by re-suspending the cells in F17 medium with 1% HDAC substrate. Furthermore, cells were resuspended in F17 medium without HDAC substrate as a background control. The HDAC activity assay was performed in triplicates for every sample as well as every control. The 96-well plate was incubated at 36.5° C., 80% humidity and 7% CO2 for one hour. During this time, the active HDACs deacetylate the HDAC substrate what releases the quenched fluorescent signal of the substrate. After incubation the fluorescent signal was analyzed by the infinite fluorescence plate reader (TECAN). The fluorescence signal of the samples and controls was normalized by subtracting the fluorescence signal of the background control. It is assumed that the fluorescent signal arising from deacetylation of the substrate directly correlates with HDAC activity.

HDAC [3] = details: description from the literature; cited from earlier work
HEK293F cells [4] = assay: Transient gene expression in HEK293F cells: IgG concentration / titer (turbidimetric test); assay type: cell-based, human; details: none=100; for relative IgG concentration: N=3; for relative titer: N=2
Experimental: (§2) Transient gene expression is a 5-7 days lasting procedure. The standard operating procedure of this expression system is applicable to shaker flasks with various volumes of cell culture ranging from 80 mL to 2 L. First, half of the cell culture volume is seeded at a viable cell density (VCD) of 8*10^5 cells/mL. After two days of cultivation, cells are split to a VCD of about 12*10^5 cells/mL. On the next day, cells are transfected with a polyethylene imine (PEI)-based transfection reagent at a VCD between 20*10^5 cells/mL and 25*10^5 cells/mL. 3 hours after transfection, the production enhancer (if any) is added. 24 h after transfection, a feeding solution and a glucose bolus is supplemented to avoid the limitation of nutrients. Depending on cell viability, which should not decrease below 50%, the supernatant is harvested five to seven days post transfection and subjected to antibody purification.
(§3) To compare transient gene expression rates always the same plasmids encoding for one distinct antibody were co-transfected.
(§4) To co-transfect two plasmids equimolarily, the ratio of the base pair number of one plasmid to the total base pair number was calculated and multiplied with the total amount of DNA (0.5 mg/L). Plasmid one has a size of 10530 bp and plasmid two has a size of 7184 bp and were solved in water to a final concentration of 1 mg/mL. For transfection of one liter cell culture, 297 μL of plasmid one and 203 μl of plasmid two were dissolved in 40 mL phosphate buffered saline (PBS) at room temperature. 1.25 mL JetPEI® solution was added and the solution was mixed well. After incubation for 10-15 min., the mixture was added to the cells. The cells were transfected in a batch containing the whole cell culture necessary for every experiment to avoid variance arising from different transfection efficiencies.
(§5) 80 mL of the transfected cell culture batch was added to a 125 ml shaker flask. For every experiment, two or three 125 mL shaker flasks were used as biological replicates and treated the same way. Three hours after transfection, cells were split into 125 mL shaker flasks and the cellular treatments with small molecules or ligands were started. Basal protein expression was determined by untreated control samples. To compare samples with the standard operating procedure, cells were also treated with VPA to a final concentration of 4 mM or 3 mM. VPA and its analogues were dissolved in double distilled water. […] Tumor necrosis factor (TNF) alpha was reconstituted with PBS supplemented with 0.1% BSA. Flagellin was dissolved in sterile double distilled water. The applied molecules were not added to the cultivation directly, but diluted in 16 mL medium pre-warmed to 36.5° C. and added to the cultivation thereafter.
(§6) 24 h after transfection a feeding solution at 36.5° C. and 3 mg/mL glucose were added to the cultivation.
Total concentration of the transiently expressed antibody was determined by a turbidimetric test. One mL cell suspension was transferred into an Eppendorf cup and centrifuged for 10 min. at 10,000 rpm (9,300 g). The supernatant was transferred into a new cup and subjected to Cobas Integra 400 plus (Roche) analysis. With comparison to internal standard the absolute concentration was calculated.

HEK293F cells [5] = assay: Transient gene expression in HEK293F cells: cell specific productivity of the expressed antibody; assay type: cell-based, human; details: for cell specific productivity with BAY11-7082 addition compared to the single treatment: 15 μM BAY11-7082 added 24 h after transfection; for specific productivity after 96 hours: none 2.01; for Mean cell specific productivity: untreated 1.71
Experimental: HEK293F cells were cultivated in F17 medium (Life Technologies) in shaker flasks at 36.5° C., 7.0% CO2 and 80% humidity in a shaker incubator (Kuhner, Mytron). Cells were split every three to four days and were cultivated no longer than five weeks. To avoid overgrowth and to keep them in the exponential phase of growth, viable cell densities (VCD) never exceeded 60*10^5 cells/mL.
as §2, §3, §4, §5, §6, §1
Total concentration of the transiently expressed antibody was determined by a turbidimetric test. One mL cell suspension was transferred into an Eppendorf cup and centrifuged for 10 min. at 10,000 rpm (9,300 g).

## CC/C=C(\C)C(=O)O [2M2P, trans-2-methyl 2-pentenoic acid]
HEK293F cells [1]; human, 11 mM
  toxicity (remark in titer cell): toxic
HDAC [2]; 3 mM
  HDACi: 9.4%
HDAC [2]
  HDAC inhibition: no
HDAC [3]
  HDAC inhibitory activity: very weak to no HDAC inhibitory activity
HEK293F cells [4]; 3 mM, 2M2P/Quisinostat combination study
  relative IgG concentration: 146%
HEK293F cells [4]; 3 mM, VPA/2M2P combination study
  relative IgG concentration: 146%
HEK293F cells [4]; 3 mM, FIG. 6B
  relative IgG concentration: 128%
HEK293F cells [4]; 3 mM, FIG. 9B
  relative IgG concentration: 128%
HEK293F cells [4]; 2M2P concentration 3 mM
  relative titer: 165%
HEK293F cells [4]; 2M2P concentration 6 mM
  relative titer: 257%
HEK293F cells [4]; 2M2P concentration 7 mM
  relative titer: 258%
HEK293F cells [4]; 2M2P concentration 8 mM
  relative titer: 172%
HEK293F cells [4]; 2M2P concentration 9 mM
  relative titer: 120%
HEK293F cells [4]; 2M2P concentration 10 mM
  relative titer: 42%
HEK293F cells [4]; 2M2P concentration 11 mM
  relative titer: 0%
HEK293F cells [5]
  cell specific productivity with BAY11-7082 addition compared to the single treatment: No reduction
HEK293F cells [5]; 3 mM, in words
  protein expression yields compared to the negative control: clearly increased
HEK293F cells [5]; 3 mM, single treatment, N=3
  specific productivity after 96 hours: 2.40 pg/cell/day
HEK293F cells [5]; Homo sapiens, HEK293F, 3 mM, 2M2P/Quisinostat combination study, none=100, N=3, read-out: relative cell specific productivity
  activity at 3000 µM: 169%
HEK293F cells [5]; Homo sapiens, HEK293F, 3 mM, VPA/2M2P combination study, none=100, N=3, read-out: relative cell specific productivity
  activity at 3000 µM: 169%
HEK293F cells [5]; Homo sapiens, HEK293F, 3 mM, none=100, N=3, FIG. 6A, read-out: relative cell specific productivity
  activity at 3000 µM: 131%
HEK293F cells [5]; Homo sapiens, HEK293F, 3 mM, none=100, N=3, FIG. 9A, read-out: relative cell specific productivity
  activity at 3000 µM: 131%
HEK293F cells [5]; Homo sapiens, HEK293F, 3 mM, single treatment, none=100, N=3, read-out: relative cell specific productivity
  activity at 3000 µM: 144%
HEK293F cells [5]; Homo sapiens, HEK293F, 3 mM, transfected control=100, N=3, FIG. 3B, read-out: relative cell specific productivity
  activity at 3000 µM: 191%
HEK293F cells [5]; Homo sapiens, HEK293F, employed concentration 2 mM, none=100, N=2, FIG. 4, read-out: relative cell specific productivity
  activity at 2000 µM: 123%
HEK293F cells [5]; Homo sapiens, HEK293F, employed concentration 3 mM, none=100, N=2, FIG. 4, read-out: relative cell specific productivity
  activity at 3000 µM: 196%
HEK293F cells [5]; conc. 3 mM
  Mean cell specific productivity: 5.4 (3 mM) pg/cell/24 h

## Cl.Cn1cc(CNCC2CCN(c3ncc(C(=O)NO)cn3)CC2)c2ccccc21 [Quisinostat]
HEK293F cells [1]; in contrast to other HDACi tested
  growth inhibition and cell death: induce growth inhibition and cell death
HDAC [2]; 300 nM
  HDACi: 69%
HDAC [2]
  HDAC inhibition: yes
HDAC [3]
  HDAC class / isoform selectivity: very potent broad spectrum HDAC inhibitor with highest potency towards HDAC 1, 2, 4, and 11
HEK293F cells [4]; 300 nM, 2M2P/Quisinostat combination study
  relative IgG concentration: 169%
HEK293F cells [4]; 300 nM, VPA/Quisinostat combination study
  relative IgG concentration: 169%
HEK293F cells [5]; 300 nM, single treatment, N=3
  specific productivity after 96 hours: 3.89 pg/cell/day
HEK293F cells [5]
  cell specific productivity with BAY11-7082 addition compared to the single treatment: significantly reduced
HEK293F cells [5]; Homo sapiens, HEK293F, 300 nM, 2M2P/Quisinostat combination study, none=100, N=3, read-out: relative cell specific productivity
  activity at 0.3 µM: 258%
HEK293F cells [5]; Homo sapiens, HEK293F, 300 nM, VPA/Quisinostat combination study, none=100, N=3, read-out: relative cell specific productivity
  activity at 0.3 µM: 258%
HEK293F cells [5]; Homo sapiens, HEK293F, 300 nM, single treatment, none=100, N=3, read-out: relative cell specific productivity
  activity at 0.3 µM: 218%
HEK293F cells [5]; Homo sapiens, HEK293F, 300 nM, transfected control=100, N=3, FIG. 3B, read-out: relative cell specific productivity
  activity at 0.3 µM: 339%
HEK293F cells [5]; Homo sapiens, HEK293F, employed concentration 300 nM, none=100, N=2, FIG. 2B, read-out: relative cell specific productivity
  activity at 0.3 µM: 279%
HEK293F cells [5]; conc. 300 mM (so in the source)
  Mean cell specific productivity: 1.71 (300 mM) pg/cell/24 h
HEK293F cells [5]; summary table, in words
  Effect on titer/SPR: strong

Reference: US10745731B2, “Recombinant production method” (Hoffmann-La Roche Inc., priority 2015, dated 2020)
